Literature values, collected in patent US6555228B2, “Bio-supportive medium, and methods of making and using the same” (priority 2000, dated 2003).

How the values were obtained:
[1] = tested on: Barnacles and zebra mussels
[2] = tested on: Ophyotrocha Labronica; details: 0.1 mg L^−1 of copper
[3] = tested on: several dinoflagelates; details: until organic chelation occurs
[4] = tested on: other classes of organisms
[5] = tested on: Artemia salina; details: 1.0 mg L^−1 of copper
[6] = tested on: some species
[7] = tested on: most habitats
[8] = tested on: Torla (=Candida) utilis; details: pH 7, simple form
[9] = tested on: Thalassiosira weissflogii; details: very low concentrations

Row | Compound | tolerance of copper [1] | growth rate of Ophyotrocha Labronica [2] | effect of copper on dinoflagelates [3] | concentration at which biolimiting occurs [4] | growth rate of Artemia salina [5] | lethal dose [6] | generally available copper with no measurable negative effect [7] | amount of copper toxic to Torla (=Candida) utilis [8] | effect of zinc ion activity on growth [9]
1 | [Cu+2] [copper] | can not tolerate any copper | decreased significantly | inhibit | ≥ 40 ppm | no change | 10 ppm | below 0.62 mg/l | 20 mg | 
2 | [Zn+2] [zinc] |  |  |  |  |  |  |  |  | growth limiting effect
